Values of other authors in PubChem BioAssay AID1259409 (Chemical Carcinogenesis Research Information System (CCRIS), 2018).

Tested on: rodent chemically induced tumor inhibition, incidence and multiplicity
Assay: CCRIS tumor inhibitor studies
Settings: for tumour outcome (control, treated, inhibition, significance): Carcinogen: NONE USED, Dose [Inhibitor]: 0, Route [Inhibitor]: ORAL, Species: RAT, Strain/Sex: BDII/FEMALE, Target Tissue: Type of Lesion: UTERUS: ENDOMETRIAL CARCINOMA, Promoter: NONE USED

SMILES | tumour outcome (control, treated, inhibition, significance) (0.1 MG/D IN DIET FOR THE DURATION OF STUDY (STUDY DURATION: LIFESPAN)) | tumour outcome (control, treated, inhibition, significance) (0.2 MG/D IN DIET FOR THE DURATION OF STUDY (STUDY DURATION: LIFESPAN)) | tumour outcome (control, treated, inhibition, significance) (0.4 MG/D IN DIET FOR THE DURATION OF STUDY (STUDY DURATION: LIFESPAN)) | outcome (Carcinogen: 4-(N-methyl-N-nitrosamino)-1-(3-pyridyl)-1-butanone, 64091-91-4, Dose [Inhibitor]: 0, 1, 10, 100 ppm in diet for 3 d beginning at 7 wks of age, tumors collected 16 wk after treatment, Route [Inhibitor]: Oral, Species: Mouse, Strain/Sex: A/J/Female, Target Tissue: Type of Lesion: Lung: Adenomas, Dose [Carcinogen]: Single dose of 2 mg 3 days after first inhibitor treatment (Test material solvent: saline), Promoter: None)
C=C1C[C@H]2[C@@H]3C=C(C)C4=CC(=O)CC[C@]4(C)[C@H]3CC[C@]2(C)[C@@]1(OC(C)=O)C(C)=O | 17/20 (85%), 0/20 (0%), 100%, not calculated | 17/20 (85%), 0/19 (0%), 100%, not calculated | 17/20 (85%), 0/17 (0%), 100%, not calculated | –
COc1c2occc2cc2ccc(=O)oc12 | – | – | – | 12/20 (75%), 17/20 (95%), 14/20 (70%), 10/20 (50%), p<0.001
